Among the data in PubChem BioAssay (NCI) are GI50 and TGI values, retold here.

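Exposure lasted 48 hours, with cells grown in 96-well plates and compounds tested at five concentrations. The concentration for 50% growth inhibition is given as GI50. The concentration for full growth arrest is given as TGI.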

The test system of the first assay is PC-3 prostate. The assay can be described thus: NCI anticancer screen, dose series, 48 h.
Consider `Nc1ncnc2n[nH]c(Nc3ccc(F)cc3)c12`, for which the GI50 was 20.8 µM and the TGI is over 100 µM.

In the case of `CCN(CC)c1ccc(-c2cc(-c3cc(OC)c(OC)c(OC)c3)nc(N3CCOCC3)c2C#N)cc1`, the GI50 was 1.27 µM and the TGI is over 100 µM.

For `CC(=O)OC1=CC(n2cc(F)c(=O)[nH]c2=O)OC(C)C1=O` (stereo not given), the TGI was over 100 µM.

In the case of `NC1(C(=O)OCc2ccccc2)CCCC1`, the TGI was over 100 µM.

Regarding `Cc1cc(/C=C/c2ccc3cc(N(C)C)ccc3[n+]2C)c(C)n1-c1ccccc1`, the GI50 is 0.13 µM and the TGI turned out to be 0.765 µM.

Take `Cn1cnc([N+](=O)[O-])c1S(=O)(=O)Oc1cccc2ccccc12`: the GI50 was 8.43 µM and the TGI was found to be 44.4 µM.

Turning to `O=C1c2cc3c(cc2-c2c1c1ccc(F)cc1c(=O)n2CCCNCCO)OCO3`, the GI50 is 0.144 µM and the TGI was found to be 1.47 µM.

For `COc1cccc(-c2nc(-c3ccc(NC(=O)C(C)C)cc3)[nH]c2-c2ccnc(Br)c2)c1`, the GI50 was 3.02 µM and the TGI was over 100 µM.

As to `C=C1C(=O)O[C@H]2[C@H]1CC/C(COC(=O)c1c[nH]c3ccccc13)=C\CC[C@@]1(C)O[C@@H]21`, the GI50 was 0.384 µM and the TGI is 2.03 µM.

In another assay the test system is M14 melanoma. The assay can be described thus: NCI anticancer screen, dose series, 48 h.
Regarding `CCOC(=O)c1cc2nc3ccccc3c(=O)n2c2ccccc12`, the TGI was over 10 µM.

Regarding `CCN1CCN(c2nc(C)cc(N(CCNc3ccnc4cc(Cl)ccc34)Cc3ccc4c(c3)OCO4)n2)CC1`, the GI50 is 1.84 µM and the TGI came to 3.44 µM.

In the case of `COc1c(Cl)c(=O)oc2ccc(Cl)cc12`, the TGI is over 100 µM.

`NS(=O)(=O)c1cc(Br)c(N=Nc2ccc(O)c3ncccc23)c(Br)c1` registered a TGI of 76.8 µM.

Consider `Cc1cc(I)cc(CN(C)CCCN2CCCCC2)c1O`, for which the GI50 is 14.4 µM and the TGI amounted to 27.5 µM.

`CN(C(=O)c1ccc(C(F)(F)F)cc1)c1ccc(Oc2ccc3c(c2)cc(C(=O)N2CCN(Cc4ccc(OC(F)F)cc4)CC2)n3C)nc1`: the GI50 was over 100 µM and the TGI is over 100 µM.

As for `CCCCCCCCC/C=C1\CCC(CN2CCOCC2)C1=O` (stereo not given), the TGI amounted to 9.41 µM.

The compound `Cc1ccccc1S(=O)(=O)OC1NS(=O)(=O)c2ccccc21` (stereo not given) gave a TGI of over 100 µM.

On to `O=C(/C=C/c1ccncc1)c1cc(Cl)ccc1O`, for which the GI50 is 17.5 µM and the TGI turned out to be 34.1 µM.

With `Nc1ncnc2n[nH]c(Nc3ccc(F)cc3)c12`, the GI50 is 13.4 µM and the TGI is over 100 µM.

With `CCN(CC)c1ccc(-c2cc(-c3cc(OC)c(OC)c(OC)c3)nc(N3CCOCC3)c2C#N)cc1`, the GI50 was 0.292 µM and the TGI amounted to 1.33 µM.

For `CC(=O)OC1=CC(n2cc(F)c(=O)[nH]c2=O)OC(C)C1=O` (stereo not given), the TGI was over 100 µM.

Compound `NC1(C(=O)OCc2ccccc2)CCCC1` returned a TGI of 35.2 µM.

As for `Cc1cc(/C=C/c2ccc3cc(N(C)C)ccc3[n+]2C)c(C)n1-c1ccccc1`, the GI50 is 0.3 µM and the TGI turned out to be 1.25 µM.

`Cn1cnc([N+](=O)[O-])c1S(=O)(=O)Oc1cccc2ccccc12`: the GI50 was 3.17 µM and the TGI came out at 10.2 µM.

For the compound `O=C1c2cc3c(cc2-c2c1c1ccc(F)cc1c(=O)n2CCCNCCO)OCO3`, the GI50 is 0.0367 µM and the TGI came to 1.09 µM.

As for `COc1cccc(-c2nc(-c3ccc(NC(=O)C(C)C)cc3)[nH]c2-c2ccnc(Br)c2)c1`, the GI50 is 3.3 µM and the TGI was over 100 µM.

`C=C1C(=O)O[C@H]2[C@H]1CC/C(COC(=O)c1c[nH]c3ccccc13)=C\CC[C@@]1(C)O[C@@H]21`: the GI50 was 0.229 µM and the TGI came to 0.651 µM.

The next assay relates to RPMI-8226 leukemia. The experiment in a line: NCI anticancer screen, dose series, 48 h.
On to `CCOC(=O)c1cc2nc3ccccc3c(=O)n2c2ccccc12`, for which the TGI is over 10 µM.

For `CCN1CCN(c2nc(C)cc(N(CCNc3ccnc4cc(Cl)ccc34)Cc3ccc4c(c3)OCO4)n2)CC1`, the GI50 was 1.31 µM and the TGI turned out to be 3.76 µM.

With `COc1c(Cl)c(=O)oc2ccc(Cl)cc12`, the TGI is over 100 µM.

With `NS(=O)(=O)c1cc(Br)c(N=Nc2ccc(O)c3ncccc23)c(Br)c1`, the TGI was over 100 µM.

With `Cc1cc(I)cc(CN(C)CCCN2CCCCC2)c1O`, the GI50 was 11.8 µM and the TGI is 29.9 µM.

Regarding `CN(C(=O)c1ccc(C(F)(F)F)cc1)c1ccc(Oc2ccc3c(c2)cc(C(=O)N2CCN(Cc4ccc(OC(F)F)cc4)CC2)n3C)nc1`, the GI50 is 0.156 µM and the TGI was over 100 µM.

The compound `CCCCCCCCC/C=C1\CCC(CN2CCOCC2)C1=O` (stereo not given) yielded a TGI of 1.08 µM.

Compound `Cc1ccccc1S(=O)(=O)OC1NS(=O)(=O)c2ccccc21` (stereo not given) returned a TGI of over 100 µM.

Consider `O=C(/C=C/c1ccncc1)c1cc(Cl)ccc1O`, for which the GI50 was 2.34 µM and the TGI stood at 5.25 µM.

`Nc1ncnc2n[nH]c(Nc3ccc(F)cc3)c12`: the GI50 was 15.1 µM and the TGI is over 100 µM.

Consider `CCN(CC)c1ccc(-c2cc(-c3cc(OC)c(OC)c(OC)c3)nc(N3CCOCC3)c2C#N)cc1`, for which the GI50 was 0.0387 µM and the TGI is 44.7 µM.

The compound `CC(=O)OC1=CC(n2cc(F)c(=O)[nH]c2=O)OC(C)C1=O` (stereo not given) yielded a TGI of over 100 µM.

The compound `NC1(C(=O)OCc2ccccc2)CCCC1` gave a TGI of 68.2 µM.

In the case of `Cc1cc(/C=C/c2ccc3cc(N(C)C)ccc3[n+]2C)c(C)n1-c1ccccc1`, the GI50 is 0.0698 µM and the TGI was 0.696 µM.

For the compound `Cn1cnc([N+](=O)[O-])c1S(=O)(=O)Oc1cccc2ccccc12`, the GI50 is 2.68 µM and the TGI stood at 6.69 µM.

Consider `O=C1c2cc3c(cc2-c2c1c1ccc(F)cc1c(=O)n2CCCNCCO)OCO3`, for which the GI50 was 0.0577 µM and the TGI was found to be 0.571 µM.
